Read-outs that look alike come from different tables or passages of the source.
Columns and labels:
[1] = biological target: T1, OX2R (Mus musculus, UniProt P58308); settings: cited from earlier work
T1 construct: host or cells: mice (WT, orexin-deficient and NT1 models), endogenous receptor in brain
T1 sequence (P58308 1-460): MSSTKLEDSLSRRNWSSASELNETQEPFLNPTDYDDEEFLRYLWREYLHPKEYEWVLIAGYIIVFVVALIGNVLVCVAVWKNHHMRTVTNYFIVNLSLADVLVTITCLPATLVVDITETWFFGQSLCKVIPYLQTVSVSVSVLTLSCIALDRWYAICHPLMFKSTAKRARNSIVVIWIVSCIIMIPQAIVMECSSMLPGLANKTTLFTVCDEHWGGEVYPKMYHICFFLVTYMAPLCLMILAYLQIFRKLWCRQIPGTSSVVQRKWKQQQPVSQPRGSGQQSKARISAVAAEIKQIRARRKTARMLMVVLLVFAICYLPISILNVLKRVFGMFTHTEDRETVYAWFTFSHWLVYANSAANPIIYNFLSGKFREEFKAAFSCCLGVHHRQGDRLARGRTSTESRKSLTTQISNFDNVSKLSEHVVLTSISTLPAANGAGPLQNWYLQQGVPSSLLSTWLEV

[2] = DCM
[3] = biological target: T2, human orexin type 2 receptor (hOX2R) (Homo sapiens, UniProt O43614); test: Orexin type 2 receptor agonist activity, intracellular Ca2+ (FLIPR TETRA) in CHO cells; assay type: cell-based; settings: CHO cells expressing hOX2R; Ca2+ fluorescence area; 100% = 10 nM human orexin A; read-out: hOx2 pEC50 (converted)
T2 construct: the Orexin receptor cDNA was inserted into pcDNA3.1(+) plasmid vector; expressed in transfected cells
T2 sequence (O43614 1-444): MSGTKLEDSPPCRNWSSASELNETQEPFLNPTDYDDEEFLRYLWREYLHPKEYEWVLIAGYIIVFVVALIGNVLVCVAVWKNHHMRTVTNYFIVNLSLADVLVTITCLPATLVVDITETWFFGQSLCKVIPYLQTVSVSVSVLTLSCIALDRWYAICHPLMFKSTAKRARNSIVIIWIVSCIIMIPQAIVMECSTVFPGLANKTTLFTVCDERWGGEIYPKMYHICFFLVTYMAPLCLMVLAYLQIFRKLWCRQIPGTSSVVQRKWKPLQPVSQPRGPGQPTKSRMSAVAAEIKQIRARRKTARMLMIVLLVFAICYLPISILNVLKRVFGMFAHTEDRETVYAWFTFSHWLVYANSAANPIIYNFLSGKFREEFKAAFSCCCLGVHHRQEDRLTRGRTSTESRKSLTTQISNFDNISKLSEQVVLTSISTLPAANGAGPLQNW
Protocol: Stable cell line generation. Obtainment of cells stably expressing either human orexin type 2 or human orexin type 1 receptor: to obtain a stable cell line the Orexin receptor cDNA was inserted into pcDNA3.1(+) plasmid vector and clones identified by G418 drug resistance selection. […] A single clone for OX2R—CHO and OX1R—CHO were grown in bulk and frozen to generate a cell bank for routine screening.
Measurement of orexin type 2 receptor agonist activity. Chinese hamster ovary (CHO) cells expressing human orexin type 2 receptor (hOX2R) or human orexin type 1 receptor (hOX1R) were seeded in each well of 384 well black clear bottom plates (BD Flacon) at 10,000 cells per well and cultured for 24 hr in an Ham's F12 (Gibco) medium containing 10% fetal calf serum (Sigma Aldrich) under the conditions of 37° C., 5% CO2. After removal of the medium, 50 μl of assay buffer 1 (0.1% bovine serum albumin (Sigma Aldrich), 20 mM HEPES (Molecular Dimensions), […] probenecid (Sigma Aldrich), 1× Calcium 5 dye (Molecular Devices) in Hank's balanced salt solution (Invitrogen)) was added, and the cells were incubated for 60 min under the conditions of 37° C., 5% CO2. A test compound was dissolved in dimethyl sulfoxide (Sigma Aldrich) to 10 mM, and then diluted with assay buffer 2 (20 mM HEPES, Hank's balanced salt solution, 0.1% bovine serum albumin). For the reaction, a test compound solution (10 μl) was added using Fluorescent Imaging Plate Reader TETRA (FLIPR TETRA: manufactured by Molecular Devices), a fluorescence value (excitation wavelength 488 nm, measurement wavelength 570 nm) of each well was measured every one second for 2 min, and the agonist activity was determined using the area of the fluorescence value as an indicator of intracellular Ca^2+ concentration. The agonist activity of the test compound was calculated assuming that the fluorescence value of the well added with only the dilution buffer was 0% and the fluorescence value of the well added with 10 nM human orexin A (Tocris) buffer was 100%.
Values of hOx2 pEC50 in Table B are presented in ranges, in which 6.0≤“+”<7.0, 7.0≤“++”<8.0, 8.0≤“+++”<9.0, and 9.0≤“++++”<10.4.

[4] = system: B6.Cg-Tg(HCRT-MJD)1Stak/J (Atax) mouse model of NT1; test: Wake-promoting efficacy of oral small molecules, piezoelectric sleep/wake monitoring, Atax mice; assay type: in vivo; settings: dosed 5 h after light onset
Protocol: (§1) Wake-promoting efficacy of oral small molecules. Wake-promoting efficacy was evaluated in the […]) mouse model of NT1 and wild type (WT) colony mates. Mice were monitored in home cages using piezoelectric sensors for rapid, non-invasive classification of sleep and wakefulness by unsupervised machine learning on physiologically relevant readouts, such as body movement and breath rate. Piezoelectric detection is highly correlated with conventional time-intensive electroencephalogram/electromyography measures of sleep/wake states in both WT and NT1 mice. In a counterbalanced, repeated-measures design, mice were orally dosed at 5 h after light onset with test articles and vehicle.

[5] = system: wild type (WT) colony mates; test: Wake-promoting efficacy of oral small molecules, piezoelectric sleep/wake monitoring, WT mice; assay type: in vivo, mouse; settings: dosed 5 h after light onset
Protocol: as §1

[6] = DCM; remark: listed apart in the source

Molecule	EC50 [3]	Wake % time 1 h post dose (increase from vehicle) ([4]; oral dose 1 mg/kg)	Wake % time 1 h post dose (increase from vehicle) ([4]; oral dose 3 mg/kg)	Wake % time 1 h post dose (increase from vehicle) ([5]; oral dose 10 mg/kg)	also measured
COc1ccc(-c2cccc(C(=O)N(C)C)c2)cc1S(=O)(=O)Nc1cccc(NCCNC(=O)c2ccccc2N(C)C)c1 [YNT-185]	–	–	–	–	sleep-onset REM periods and cataplexy-like events ([1]; NT1 mouse model): decrease sleep-onset REM periods and cataplexy-like events; wakefulness ([1]; intraperitoneally or ICV, wild type (WT) and orexin ligand-deficient mice): modestly increases wakefulness
O=C1CCOc2c(F)cccc2-c2cccc(c2)C[C@H]2[C@@H](NS(=O)(=O)C3(F)CC3)CCCN12 [Example 49, 1-fluoro-N-((4^2S,4^3S)-1^3-fluoro-5-oxo-8-oxa-4 (2,1)-piperidina-1 (1,2),2 (1,3)-dibenzenacyclooctaphane-4^3-yl)cyclopropane-1-sulfonamide]	0.0398 to 1 nM	–	–	–	ring closure, yield after HPLC ([2]; from O=C(O)CCOc1c(F)cccc1-c1cccc(C[C@@H]2NCCC[C@@H]2NS(=O)(=O)C2(F)CC2)c1, amide bond, 12-membered ring, DMC (2-chloro-1,3-dimethylimidazolinium chloride)/DIEA, 1.84 mM, 20.0 °C, 4.0 h): 71%
O=C1CCOc2c(F)cccc2-c2cccc(c2F)C[C@H]2[C@@H](NS(=O)(=O)C3(F)CC3)CCCN12 [Example 48, N-((4^2S,4^3S)-13,22-difluoro-5-oxo-8-oxa-4 (2,1)-piperidina-1 (1,2),2 (1,3)-dibenzenacyclooctaphane-4^3-yl)-1-fluorocyclopropane-1-sulfonamide]	0.0398 to 1 nM	40.5%	48.0%	34.8%	Wake % time 1 h post dose (increase from vehicle) ([4]; oral dose 0.3 mg/kg): 44.4%; Wake % time 1 h post dose (increase from vehicle) ([5]; oral dose 3 mg/kg): 18.6%
O=C1CCOc2c(F)cc(F)cc2-c2cccc(c2F)C[C@H]2[C@@H](NS(=O)(=O)CF)[C@@H](F)CCN12 [Example 41, 1-fluoro-N-((4^2S,4^3R,4^4S)-1^3,1^5,2^2,4^4-tetrafluoro-5-oxo-8-oxa-4 (2,1)-piperidina-1 (1,2),2 (1,3)-dibenzenacyclooctaphane-4^3-yl)methanesulfonamide]	0.0398 to 1 nM	32.4%	38.2%	28.0%	Wake % time 1 h post dose (increase from vehicle) ([5]; oral dose 30 mg/kg): 31.5%
CNCCOc1ccccc1-c1cccc(C[C@@H]2NCC3(CC3)[C@@H]2NS(=O)(=O)C(F)F)c1F	–	–	–	–	ring closure, yield after HPLC ([2]; the molecule shown is the open-chain precursor, other bond, 13-membered ring, triphosgene/TEA, then K2CO3, then MeCN, 0.2 mM, 60.0 °C): 16%
O=C1CCOc2c(F)cc(F)cc2-c2cccc(c2F)C[C@H]2[C@@H](NS(=O)(=O)C3(F)CC3)CCCN12 [Example 47, 1-fluoro-N-((4^2S,4^3S)-1^3,1^5,2^2-trifluoro-5-oxo-8-oxa-4 (2,1)-piperidina-1 (1,2),2 (1,3)-dibenzenacyclooctaphane-4^3-yl)cyclopropane-1-sulfonamide]	0.0398 to 1 nM	41.8%	40.4%	39.0%	ring closure, isolated yield ([6]; from O=C(O)CCOc1c(F)cc(F)cc1-c1cccc(C[C@@H]2NCCC[C@@H]2NS(=O)(=O)C2(F)CC2)c1F, amide bond, 12-membered ring, DMC (2-chloro-1,3-dimethylimidazolinium chloride)/DIEA, 1.56 mM, 25.0 °C, 1.0 h): 44%; Wake % time 1 h post dose (increase from vehicle) ([4]; oral dose 0.3 mg/kg): 41.3%; Wake % time 1 h post dose (increase from vehicle) ([5]; oral dose 1 mg/kg): 20.7%; Wake % time 1 h post dose (increase from vehicle) ([5]; oral dose 3 mg/kg): 37.6%
1,1-difluoro-N-((4^2S,4^3R)-1^3,4^4,4^4-trifluoro-6-methyl-5-oxo-9-oxa-6-aza-4 (2,1)-pyrrolidina-1 (1,2),2 (1,3)-dibenzenacyclononaphane-4^3-yl) methanesulfonamide_cis racemic	–	–	–	–	ring closure, isolated yield ([6]; other bond, 13-membered ring, triphosgene/TEA, then K2CO3, then MeCN, 0.4 mM, 20.0 °C): 28.5%
O=C1CCOc2c(F)cccc2-c2cccc(c2F)C[C@H]2[C@@H](NS(=O)(=O)C3(F)CC3)[C@@H](F)CCN12 [Example 44, 1-fluoro-N-((4^2S,4^3R,4^4S)-1^3,2^2,4^4-trifluoro-5-oxo-8-oxa-4 (2,1)-piperidina-1 (1,2),2 (1,3)-dibenzenacyclooctaphane-4^3-yl)cyclopropane-1-sulfonamide]	0.0398 to 1 nM	–	–	–	ring closure, yield after HPLC ([2]; from O=C(O)CCOc1c(F)cccc1-c1cccc(C[C@@H]2NCC[C@H](F)[C@@H]2NS(=O)(=O)C2(F)CC2)c1F, amide bond, 12-membered ring, DMC (2-chloro-1,3-dimethylimidazolinium chloride)/DIEA, 0.165 mM, 25.0 °C, 4.0 h): 42%
O=C1CCCN2C(=O)CCOc3ccccc3-c3cccc(c3F)CC12 (stereo not shown)	–	–	–	–	ring closure, isolated yield ([6]; from O=C(O)CCOc1ccccc1-c1cccc(CC2NCCCC2=O)c1F, amide bond, 12-membered ring, DMC (2-chloro-1,3-dimethylimidazolinium chloride)/DIEA, 2.7 mM, 25.0 °C, 12.0 h): 53%
O=C1CCCN2C(=O)CCOc3ccccc3-c3cccc(c3)CC12 (stereo not shown)	–	–	–	–	ring closure, isolated yield ([6]; from O=C(O)CCOc1ccccc1-c1cccc(CC2NCCCC2=O)c1, amide bond, 12-membered ring, DMC (2-chloro-1,3-dimethylimidazolinium chloride)/DIEA, 2.56 mM, 25.0 °C, 12.0 h): 52%
O=C1CCOc2c(F)cc(F)cc2-c2cccc(c2F)C[C@H]2[C@@H](NS(=O)(=O)C3(F)CC3)[C@@H](F)CCN12 [Example 43, 1-fluoro-N-((4^2S,4^3R,4^4S)-1^3,1^5,2^2,4^4-tetrafluoro-5-oxo-8-oxa-4 (2,1)-piperidina-1 (1,2),2 (1,3)-dibenzenacyclooctaphane-4^3-yl)cyclopropane-1-sulfonamide]	0.0398 to 1 nM	–	–	–	ring closure, yield after HPLC ([2]; from O=C(O)CCOc1c(F)cc(F)cc1-c1cccc(C[C@@H]2NCC[C@H](F)[C@@H]2NS(=O)(=O)C2(F)CC2)c1F, amide bond, 12-membered ring, DMC (2-chloro-1,3-dimethylimidazolinium chloride)/DIEA, 0.148 mM, 20.0 °C, 4.0 h): 77%
O=C1CCOc2c(F)cccc2-c2cccc(c2F)C[C@H]2[C@@H](NS(=O)(=O)CF)[C@@H](F)CCN12 [Example 42, 1-fluoro-N-((4^2S,4^3R,4^4S)-1^3,2^2,4^4-trifluoro-5-oxo-8-oxa-4 (2,1)-piperidina-1 (1,2),2 (1,3)-dibenzenacyclooctaphane-4^3-yl)methanesulfonamide]	0.0398 to 1 nM	33.7%	34.2%	22.8%	Wake % time 1 h post dose (increase from vehicle) ([5]; oral dose 3 mg/kg): 17.1%; Wake % time 1 h post dose (increase from vehicle) ([5]; oral dose 30 mg/kg): 37.7%
